System: lymph node cells from B10.RQB3-DRB1*1502 positive and negative littermates (H-2A^q)
Assay: T cell proliferation assay, lymph node cells of immunized B10.RQB3 mice
Type: cell-based, mouse
Conditions: for T cell response of DRB1*1502 transgene positive animals compared with negative littermates / B10.RQB3 controls: mice immunized with 200 μg HII 250-270 in CFA, in vitro HII 250-270 4, 20, 100 μg/ml, PPD 20, LPS 40, Con A 10 μg/ml, FIG. 2

| Substance | T cell response of DRB1*1502 transgene positive animals compared with negative littermates / B10.RQB3 controls | mean cpm of lymph node cells challenged in vitro (positive control of the DRB1 peptide proliferation assay) |
| --- | --- | --- |
| Concanavalin A [Con A] | similar | > 100,000 cpm |
| lipopolysaccharide [LPS] | similar | – |
